What was measured:
[1] = test system: primary human T-ALL tumor cells; assay: Akt phosphorylation in primary T-ALL samples (immunoblot); format: cell-based; settings: 6 hours of treatment
Method: Cell lysates (from cell lines or thymocytes) were prepared on ice in M-PER Mammalian Protein Extraction reagent (Pierce) containing a cocktail of protease and phosphatase inhibitors (Swat et al., 2006). Equal amounts of total protein from lysates were subjected to SDS-PAGE, transferred to PVDF membrane (Immobilon-P, Millipore), and membranes probed by overnight incubation with appropriate primary antibodies. Bound antibodies were visualized with HRP-conjugated secondary antibodies and ECL chemistry (SuperPico West, Pierce).

Plasma levels of CAL-130 = format: in vivo, mouse; settings: 10 mg kg−1 orally, at the end of 8 hours
Method: For CAL-130 level determinations, animals received a single oral dose (10 mg kg^−1 or 20 mg kg^−1) of inhibitor. Plasma was collected at 0, 2, 4, 8, and 12 hours and subjected to high-performance liquid chromatography-MS/MS (sensitivity 1 ng/mL). The concentration of CAL-130 in plasma was determined using a standard curve (analyte peak area versus concentration) generated with calibration standard pools. Values represent the mean (±SD) for four animals per group.

CCRF-CEM xenograft = assay: Systemic (intravenous) CCRF-CEM xenograft, survival; format: in vivo, mouse; settings: treatment from 3 days post-injection for 7 days
Method: After 3 days, mice were segregated into two treatment groups that received either CAL-130 or vehicle by oral gavage as described above for 7 days. Mice in both groups were then followed until moribund (and euthanized).
In the former, luciferase expressing CCRF-CEM cells were injected into the flanks of immunodeficient mice and allowed to grow for 1 week before administering vehicle control or inhibitor (10 mg kg^−1 every 8 hours) for a total of 4 days. In the latter, treatment commenced 3 days post-injection of tumor cells for a total of 7 days. […] This translated into an increase in median survival time for treated animals with systemic disease of 35 days versus 23 days for mice that received vehicle control alone (FIG. 19D).

CCRF-CEM xenografts = assay: Subcutaneous CCRF-CEM (CEM-luc) xenograft, bioluminescence; format: in vivo, mouse; settings: 10 mg kg−1 every 8 hours for 4 days
Method: For subcutaneous xenograft experiments, luminescent CCRF-CEM (CEM-luc) cells were generated by lentiviral infection with FUW-luc and selection with neomycin. Luciferase expression was verified with the Dual-Luciferase Reporter Assay kit (Promega Corp., Madison, WI). […] After 1 week, mice were treated by oral gavage with vehicle (0.5% methyl cellulose, 0.1% Tween-80), or CAL-130 (10 mg kg^−1) (Gilead Sciences, Foster City, CA) every 8 hours daily for 4 days and then tumors imaged as follows: mice anesthetized by isoflurane inhalation were injected intraperitoneally with D-luciferin (50 mg kg^−1, Xenogen, Calipers Life Sciences, Hopkinton, MA). Photonic emission was imaged with the In Vivo Imaging System (IVIS, Xenogen). Tumor bioluminescence was quantified by integrating the photonic flux (photons per second) through a region encircling each tumor using the LIVING IMAGES software package (Xenogen).
In the former, luciferase expressing CCRF-CEM cells were injected into the flanks of immunodeficient mice and allowed to grow for 1 week before administering vehicle control or inhibitor (10 mg kg^−1 every 8 hours) for a total of 4 days. In the latter, treatment commenced 3 days post-injection of tumor cells for a total of 7 days. […]

CAMK2B = target: T1, CAMK2B (Homo sapiens, UniProt Q13554); assay: Ambit KinomeScan screening; format: binding; settings: CAL-130 10 μM
T1 construct: purchased Ambit (KinomeScan screening)
Method in brief: (§1)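 Each kinase, carrying a tag, was challenged to bind immobilized bait while CAL-130 was present (10 μM). Reported numbers are percent of the control signal, lower indicating tighter compound binding.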

PLK3 = target: T2, PLK3 (Homo sapiens, UniProt Q9H4B4); assay: Ambit KinomeScan screening; format: binding; settings: CAL-130 10 μM
T2 construct: purchased Ambit (KinomeScan screening service)
Method in brief: as §1

PI3Kα = PI3Kα isoform selective cell-based assay (PDGF-stimulated SW3T3 cells, P-Akt); settings: compared to pan-PI3K/mTOR inhibitor BEZ235
Method: For the analysis of p110α-mediated signaling, SW3T3 cells were placed in serum free media (3 hours) and incubated with either CAL-130 or the Pan-PI3K/mTor inhibitor BEZ235 (Selleck Chemicals) for 1 hour prior to stimulation with PDGF (10 ng/ml; Cell Signaling) for 10 minutes at 37° C. After washing once in cold phosphate-buffered saline (PBS), the cell pellet was resuspended in lysis buffer (50 mM HEPES [N-2-hydroxyethylpiperazine-N-2-ethanesulfonic acid], pH 7.4, 150 mM NaCl, 10% glycerol, 1% Triton X-100, 1.5 mM MgCl2, 1 mM EGTA [ethylene glycol tetraacetic acid], 100 mM NaF, 1 mM phenylmethylsulfonyl fluoride, 1 mM NaVO4, 1 μg/ml leupeptin, and 1 μg/ml aprotinin) for 15 minutes on ice. Whole-cell lysates were obtained by centrifugation, and the soluble protein analyzed by Western blotting for Akt and P-Akt levels. Quantification was done using the Li-COR Odyssey imaging system.

platelets = assay: ADP-induced platelet aggregation; format: cell-based, mouse; settings: platelets from p110γ/δ double knockout mice 2 hours post administration of CAL-130 (10 mg kg−1)
Method: Blood was obtained from anesthetized p110δ/γ double knockout mice via cardiac puncture. Platelets were purified from PRP by centrifugation and resuspended to a final concentration of […] in buffer (145 mM NaCl, 10 mM Hepes, 0.5 mM Na2HPO4, 5 mM KCl, 2 mM MgCl2, 1 mM CaCl2, 0.1% glucose, pH 7.4). CAL-130 (1 μM, 2.5 μM, or 5 μM final concentration) or DMSO was added to platelet suspensions 5 minutes prior to inducing aggregation with ADP (25 μM). Mouse fibrinogen (final concentration 200 μg/ml) was also added to the platelet suspensions just prior to activation as previously described (Magallon et al., 2011). Aggregation was assessed using a Chronolog Lumi-Aggregometer (model 540 VS, Chronolog, Havertown, PA). In some experiments, blood was collected 2 hours after administering a single dose of CAL-130 (10 mg kg^−1) or vehicle control and ADP-induced aggregation evaluated.

T2 sequence (Q9H4B4 whole entry): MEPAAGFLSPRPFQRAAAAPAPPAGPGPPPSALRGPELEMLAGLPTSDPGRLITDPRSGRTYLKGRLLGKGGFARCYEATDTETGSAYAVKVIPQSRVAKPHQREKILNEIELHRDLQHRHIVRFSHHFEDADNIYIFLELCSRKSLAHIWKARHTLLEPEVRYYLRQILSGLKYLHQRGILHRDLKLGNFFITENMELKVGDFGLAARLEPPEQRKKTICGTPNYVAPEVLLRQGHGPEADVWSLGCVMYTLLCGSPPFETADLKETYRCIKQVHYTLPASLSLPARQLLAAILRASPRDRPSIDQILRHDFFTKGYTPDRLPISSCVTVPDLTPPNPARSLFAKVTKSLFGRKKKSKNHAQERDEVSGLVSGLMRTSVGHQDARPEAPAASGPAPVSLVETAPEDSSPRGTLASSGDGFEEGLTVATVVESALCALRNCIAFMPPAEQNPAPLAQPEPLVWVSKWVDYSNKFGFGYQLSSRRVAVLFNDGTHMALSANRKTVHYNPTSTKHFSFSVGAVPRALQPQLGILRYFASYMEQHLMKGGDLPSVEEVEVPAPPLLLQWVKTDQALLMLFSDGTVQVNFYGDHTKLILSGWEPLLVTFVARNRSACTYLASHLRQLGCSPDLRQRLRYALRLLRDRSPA
T1 sequence (Q13554 whole entry): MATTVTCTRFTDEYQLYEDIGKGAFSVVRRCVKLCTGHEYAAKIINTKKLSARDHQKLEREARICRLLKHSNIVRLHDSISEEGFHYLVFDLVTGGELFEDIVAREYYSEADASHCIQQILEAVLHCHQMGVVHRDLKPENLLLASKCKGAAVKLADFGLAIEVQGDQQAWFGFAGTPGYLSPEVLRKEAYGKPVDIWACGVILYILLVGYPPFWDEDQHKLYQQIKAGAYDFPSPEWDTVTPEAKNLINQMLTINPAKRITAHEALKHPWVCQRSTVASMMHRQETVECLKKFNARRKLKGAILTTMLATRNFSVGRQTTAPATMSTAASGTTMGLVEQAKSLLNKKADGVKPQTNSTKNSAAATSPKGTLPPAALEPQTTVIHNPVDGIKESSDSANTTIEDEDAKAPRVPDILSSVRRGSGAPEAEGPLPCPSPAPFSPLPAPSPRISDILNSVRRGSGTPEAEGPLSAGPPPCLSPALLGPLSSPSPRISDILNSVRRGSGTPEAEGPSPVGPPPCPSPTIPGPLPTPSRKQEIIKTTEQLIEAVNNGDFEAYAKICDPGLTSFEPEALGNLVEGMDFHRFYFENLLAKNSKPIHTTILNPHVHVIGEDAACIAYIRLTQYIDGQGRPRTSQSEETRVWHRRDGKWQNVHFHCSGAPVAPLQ
Method for PTEN null T-ALL: Mice deficient for PTEN in the T cell lineage were generated by crossing Lck-cre with floxed Pten (Hennet et al., 1995; Trotman et al., 2003).
Mice received an oral dose (10 mg kg^−1) of the inhibitor every 8 hours for a period of 7 days and were then followed until moribund.
Pten^fl/fl mice were crossed with a strain in which a luciferase cDNA, preceded by a LoxP-stop-LoxP cassette, was introduced into the ubiquitously expressed ROSA26 locus (Safran et al., 2003). Progeny were then crossed with Lck-cre transgenics to delete Pten in T cell progenitors and induce expression of luciferase (Lck/Pten^fl/fl; Gt(ROSA)26Sor^tm1(Luc)Kael/J).

Cc1ccccc1-n1c(C(C)Nc2nc(N)nc3nc[nH]c23)nc2cccc(C)c2c1=O (centres unmarked) [CAL-130]
Akt phosphorylation [1]: reduction | plasma concentration (Plasma levels of CAL-130): 330 ± 180 nM | median survival time (CCRF-CEM xenograft): 35 days | weights of thymi, liver, spleen, and kidneys versus vehicle control (PTEN null T-ALL; 7 days treatment): significantly less | median survival (PTEN null T-ALL; Lck/Pten fl/fl mice with T-ALL, oral 10 mg kg−1 every 8 hours for 7 days): 45 days | WBC (PTEN null T-ALL; Lck/Pten fl/fl mice, by day 4): dramatic reduction | apoptosis (sub-G0 population after PI staining) (PTEN null T-ALL; Lck/Pten fl/fl mice, days 4 through 7): increase in apoptosis | bioluminescent signals (PTEN null T-ALL; Lck/Pten fl/fl;Gt(ROSA)26Sor luciferase mice, day 4 of treatment): dramatically lower | peripheral blood T-ALL cells (PTEN null T-ALL; diseased Lck/Pten fl/fl mice, within hours of treatment (data not shown)): dramatic and sustained reduction | difference in luminescence, treated versus vehicle control (CCRF-CEM xenografts): 5 fold | Percent of Control Binding (CAMK2B): 100% | Percent of Control Binding (PLK3): 100% | PDGF-induced activation of PI3Kα (Akt phosphorylation) (PI3Kα): limited ability to impair | ADP-mediated platelet aggregation (platelets): no obvious defect

From patent US11969428B2, “Methods and pharmaceutical compositions for treating lymphoid malignancy” (priority 2011, dated 2024)
